Laboratory results reported in US20240010726A1, “LFA-1 SIGNALLING MEDIATOR FOR USE IN CANCER THERAPY” (Universität Basel, priority 2020, published 2024).

What was measured:
LFA-1 = target: T1, LFA-1 (Homo sapiens, UniProt P05107+P20701); assay: Flow cytometry of LFA-1 open head-piece (mAb m24) on EM and naïve CD8 T cells; type: cell-based
T1 construct: endogenous in cells; host or cells: primary human T cells from healthy donors: PHA-induced T cell blasts, sorted EM and naive CD8 T cells, and NY-ESO-1 TCR-transduced REP T cells
T1 sequence (P20701 26-1170): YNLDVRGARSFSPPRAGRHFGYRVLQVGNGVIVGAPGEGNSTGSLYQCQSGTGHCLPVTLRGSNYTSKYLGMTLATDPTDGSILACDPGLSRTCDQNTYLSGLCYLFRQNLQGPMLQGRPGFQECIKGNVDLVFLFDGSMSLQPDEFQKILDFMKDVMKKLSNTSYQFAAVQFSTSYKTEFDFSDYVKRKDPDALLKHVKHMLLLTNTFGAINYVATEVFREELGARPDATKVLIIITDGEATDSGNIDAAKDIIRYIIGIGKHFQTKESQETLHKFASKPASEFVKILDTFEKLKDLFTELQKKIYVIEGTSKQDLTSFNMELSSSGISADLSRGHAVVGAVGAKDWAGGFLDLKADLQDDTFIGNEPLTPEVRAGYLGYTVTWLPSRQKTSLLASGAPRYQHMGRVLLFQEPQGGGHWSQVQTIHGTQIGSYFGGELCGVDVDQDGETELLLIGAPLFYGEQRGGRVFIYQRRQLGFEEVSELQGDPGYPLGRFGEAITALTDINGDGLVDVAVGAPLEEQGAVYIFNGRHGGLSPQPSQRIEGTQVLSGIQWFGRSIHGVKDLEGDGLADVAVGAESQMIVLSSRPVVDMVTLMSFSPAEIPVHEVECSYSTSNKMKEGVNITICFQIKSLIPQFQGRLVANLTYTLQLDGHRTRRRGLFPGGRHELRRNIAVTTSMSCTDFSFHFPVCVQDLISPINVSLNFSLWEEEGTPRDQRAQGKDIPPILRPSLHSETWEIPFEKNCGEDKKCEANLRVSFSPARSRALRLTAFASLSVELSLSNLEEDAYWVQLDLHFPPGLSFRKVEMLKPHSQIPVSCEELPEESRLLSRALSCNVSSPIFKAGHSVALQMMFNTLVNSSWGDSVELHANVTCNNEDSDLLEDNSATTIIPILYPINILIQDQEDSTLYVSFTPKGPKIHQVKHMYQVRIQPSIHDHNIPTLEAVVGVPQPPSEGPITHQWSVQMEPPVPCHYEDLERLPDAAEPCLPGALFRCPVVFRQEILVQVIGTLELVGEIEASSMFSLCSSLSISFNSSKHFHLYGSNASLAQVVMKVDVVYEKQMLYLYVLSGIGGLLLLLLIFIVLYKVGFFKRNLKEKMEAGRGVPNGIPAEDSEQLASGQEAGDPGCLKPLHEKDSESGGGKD
T1 sequence (P05107 23-769): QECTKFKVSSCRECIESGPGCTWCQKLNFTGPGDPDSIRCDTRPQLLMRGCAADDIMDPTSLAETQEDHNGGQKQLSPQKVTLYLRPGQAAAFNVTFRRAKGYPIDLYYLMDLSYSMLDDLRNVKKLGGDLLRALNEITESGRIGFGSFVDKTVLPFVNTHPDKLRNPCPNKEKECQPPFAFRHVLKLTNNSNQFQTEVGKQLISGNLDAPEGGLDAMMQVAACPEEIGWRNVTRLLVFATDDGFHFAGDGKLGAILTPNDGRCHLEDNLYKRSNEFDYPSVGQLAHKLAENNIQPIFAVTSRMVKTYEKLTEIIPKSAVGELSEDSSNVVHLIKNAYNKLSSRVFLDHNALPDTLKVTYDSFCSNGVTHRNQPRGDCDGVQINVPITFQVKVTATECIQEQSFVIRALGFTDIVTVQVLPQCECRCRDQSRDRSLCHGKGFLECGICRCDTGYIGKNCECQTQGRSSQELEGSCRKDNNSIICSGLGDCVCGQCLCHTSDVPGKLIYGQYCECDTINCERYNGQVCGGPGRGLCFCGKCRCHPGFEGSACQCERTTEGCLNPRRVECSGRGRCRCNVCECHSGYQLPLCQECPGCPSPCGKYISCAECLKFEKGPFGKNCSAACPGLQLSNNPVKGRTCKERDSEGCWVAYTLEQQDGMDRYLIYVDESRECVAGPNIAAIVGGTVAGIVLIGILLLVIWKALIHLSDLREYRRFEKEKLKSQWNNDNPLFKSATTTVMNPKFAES
Protocol: FIG. 2: Extracellular magnesium promotes memory-specific activation via LFA-1. Glycolytic switch of human EM CD8 T cells (a) and naïve CD8 T cells (b) subsets upon injection of anti-CD3 Ab only, or anti-CD3 and anti-CD28 Ab, was assessed by metabolic flux analysis in medium containing either 1.2 mM Mg^2+, 0 mM Mg^2+, or medium which was reconstituted from 0 mM to 1.2 mM Mg^2+ immediately prior to activation (0→1.2 mM Mg^2+). (a) Results for human effector memory (EM) and (b) for human naïve CD8 T cells. Glycolytic switch was quantified by subtracting […] measurements. (c) Flow cytometric analysis of surface activation markers on human EM CD8 T cells 24 hours after activation by plate-bound anti-CD3 Ab and soluble anti-CD28 Ab, in 1.2 mM and 0 mM Mg^2+ media, respectively. (d) Abundance of inflammatory cytokines in corresponding EM CD8 T cell culture supernatants, determined by CBA. (e) CD11a (LFA-1) surface expression on human naïve and EM CD8 T cells as well PHA T cell blasts. Flow cytometry-based assessment of total LFA-1 expression assessed by mAb TS2/4 (f), closed conformation of αL by mAb HI111 (g), extended conformation of LFA-1 by mAb Kim127 (h), open head-piece conformation of LFA-1 by mAb m24 (i), phosphorylation of focal adhesion kinase (FAK) […] as well TNF expression (k)±TCR-induced activation in different extracellular Mg^2+ concentrations. […]

T2 target cells = type: cell-based, human
[1] = tested on: luciferase-expressing EL4 target cells; assay: Cytotoxicity assay of WT and LFA-1−/− OT1 CTLs with luciferase-expressing EL4 target cells; type: cell-based, murine; details: EL4 pulsed with altered OVA peptides (G4, H7, R7) at 10^−6 M; 4 h; E:T 3:1; 1.2 mM or 0 mM Mg^2+
Protocol: FIG. 4: Magnesium regulates LFA-1 mediated T cell activation and cytotoxicity within physiologic range • (a) Metabolic flux analysis of human EM CD8 T cells upon supra-physiologic activation with anti-CD3 and anti-CD28 Ab, and additional injection of secondary, cross-linking anti-CD3/28 Ab, in medium containing 1.2 mM Mg^2+, 0 mM Mg^2+, or medium which was reconstituted to 1.2 mM Mg^2+ immediately prior to activation (0→1.2 mM Mg^2+). Pooled results from n=6 healthy donors from 3 independent experiments. (b) CD69 expression of PHA T cell blasts upon activation with indicated concentrations of plate-bound anti-CD3 mAb in ±Mg^2+ containing medium. […] Cytotoxicity was quantified after adding luciferin to medium and measuring luminescent signal intensity. […] Cytotoxicity was quantified after adding luciferin to medium and measuring luminescent signal intensity. […]
OT-I derived CTLs were stimulated with OVA257-264 peptide ([…], Eurogentec) or the altered peptide ligands R7 ([…], Eurogentec), H7 ([…], Eurogentec) or G4 ([…], Eurogentec) at 10 μM for 4 h. […] Cytotoxicity was either evaluated with fluorogenic caspase-3 substrate (as described above) or luciferase-expressing EL4 target cells. Cytotoxicity was quantified after adding luciferin at 0.15 mg ml^−1 (PerkinElmer) to medium and measuring luminescent signal intensity by plate reader (Synergy H1, BioTek).

## [Mg+2] [Mg^2+, Magnesium]
LFA-1; Mg^2+-restricted conditions vs Mg^2+
  Activation induced LFA-1 head-piece opening (m24) on EM CD8 T cells: reduced activation induced LFA-1 head-piece opening
LFA-1; moderate TCR stimulation, ±Mg^2+
  Activation induced LFA-1 head-piece opening (m24) on naïve CD8 T cells: did not induce LFA-1 head-piece opening
T2 target cells
  Cytotoxicity of REP T cells (caspase-3 activity in T2 target cells): significantly increased
[1]
  Specific target cell lysis by OT1 CTLs: confirmed across a spectrum of TCR affinities
